Each structure is given as a SMILES string.

Experiment [1] deals with T1, Carboxypeptidase B (Helicoverpa zea, UniProt Q3T905).
T1 sequence (Q3T905 whole entry): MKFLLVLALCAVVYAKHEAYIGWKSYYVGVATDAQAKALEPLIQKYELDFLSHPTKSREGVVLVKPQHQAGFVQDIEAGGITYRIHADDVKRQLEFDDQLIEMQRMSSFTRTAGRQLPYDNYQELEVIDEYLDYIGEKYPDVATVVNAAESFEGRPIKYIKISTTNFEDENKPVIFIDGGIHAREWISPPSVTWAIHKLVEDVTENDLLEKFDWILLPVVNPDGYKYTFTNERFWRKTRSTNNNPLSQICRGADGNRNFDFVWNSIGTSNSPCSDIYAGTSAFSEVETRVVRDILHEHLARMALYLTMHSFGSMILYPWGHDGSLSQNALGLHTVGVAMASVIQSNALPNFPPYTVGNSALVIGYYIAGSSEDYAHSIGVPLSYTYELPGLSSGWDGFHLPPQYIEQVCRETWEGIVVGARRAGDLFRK
The experiment in a line: Inhibition of corn earworm recombinant carboxypeptidase B expressed in Pichia pastoris system.

For experiment [2], the target named is T2, Carboxypeptidase B (Homo sapiens, UniProt P15086).
T2 sequence (P15086 whole entry): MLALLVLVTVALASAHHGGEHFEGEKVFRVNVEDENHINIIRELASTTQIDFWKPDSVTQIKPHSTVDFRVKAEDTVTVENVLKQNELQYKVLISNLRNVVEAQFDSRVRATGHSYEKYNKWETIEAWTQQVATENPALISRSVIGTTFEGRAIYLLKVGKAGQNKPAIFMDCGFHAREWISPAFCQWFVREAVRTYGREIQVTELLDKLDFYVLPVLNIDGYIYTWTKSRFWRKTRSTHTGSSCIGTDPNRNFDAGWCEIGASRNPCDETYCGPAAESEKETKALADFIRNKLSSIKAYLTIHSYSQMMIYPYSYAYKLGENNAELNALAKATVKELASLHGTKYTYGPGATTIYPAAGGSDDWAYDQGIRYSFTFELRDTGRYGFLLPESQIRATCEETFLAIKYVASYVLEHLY
In words: Inhibition of human recombinant carboxypeptidase B expressed in Pichia pastoris system.

The target of a further experiment is T3, Carboxypeptidase A1 (Bos taurus, UniProt P00730).
T3 sequence (P00730 whole entry): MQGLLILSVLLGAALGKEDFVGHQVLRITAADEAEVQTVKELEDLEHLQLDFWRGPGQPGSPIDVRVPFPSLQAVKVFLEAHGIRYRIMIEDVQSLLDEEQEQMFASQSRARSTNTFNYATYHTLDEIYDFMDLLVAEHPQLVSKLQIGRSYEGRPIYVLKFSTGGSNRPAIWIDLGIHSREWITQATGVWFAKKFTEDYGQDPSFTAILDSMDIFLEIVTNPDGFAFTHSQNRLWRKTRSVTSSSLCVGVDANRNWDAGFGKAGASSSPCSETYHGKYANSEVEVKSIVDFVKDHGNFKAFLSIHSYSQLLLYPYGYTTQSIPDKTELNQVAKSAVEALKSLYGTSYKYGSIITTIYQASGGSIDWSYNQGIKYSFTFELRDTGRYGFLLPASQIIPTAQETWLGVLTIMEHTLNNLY
In words: Inhibition of bovine carboxypeptidase A1.

Experiment [3] is described as follows: Selectivity ratio, Ki for bovine carboxypeptidase A1 to Ki for human recombinant carboxypeptidase B.

With `Cc1ccccc1CCNS(=O)(=O)c1ccc(-n2cnnn2)c(C)c1`, the Ki at Carboxypeptidase B [1] (read-out: Ki) was 38 µM; at Carboxypeptidase B [2], 25.9 µM; at Carboxypeptidase A1 it was 138 µM.

With `Cc1ccc(C(=O)CSc2nnc(COc3ccc(Cl)cc3)o2)cc1`, the Ki on Carboxypeptidase B [1] (read-out: Ki) amounted to 12 µM; at Carboxypeptidase B [2], 11.7 µM; at Carboxypeptidase A1 it was 36.7 µM.

In the case of `COc1ccc(C(=O)Cn2nnc(-c3ccccc3NC(=O)C3CC3)n2)cc1`, the values for the Ki on Carboxypeptidase B [1] (read-out: Ki), at Carboxypeptidase B [2] and on Carboxypeptidase A1 were 31 µM, 292 µM and 41.3 µM, respectively.

For `O=C(CSc1nnc(-c2ccc(O)cc2)n1Cc1ccco1)c1cccs1`, the Ki result was “Not Active” at Carboxypeptidase B [1], 9.1 µM at Carboxypeptidase B [2] and 74.5 µM on Carboxypeptidase A1.

As to `COc1cccc(CN(Cc2cccnc2)S(=O)(=O)c2ccc(-n3cnnn3)c(C)c2)c1`, the Ki on Carboxypeptidase B [1] (read-out: Ki) amounted to 28.4 µM; on Carboxypeptidase B [2] it was 23.9 µM; on Carboxypeptidase A1, 148 µM.

For `Cc1ccc(S(=O)(=O)N2CCN(C(=O)CNCc3ccncc3)CC2)cc1`, the figures for the Ki on Carboxypeptidase B [1] (read-out: Ki), on Carboxypeptidase B [2] and at Carboxypeptidase A1 were 18 µM, 364 µM and 250 µM, respectively.

`N=C(N)NCCSC(CC(=O)O)C(=O)O` (racemic): on Carboxypeptidase B [2], the Ki was determined as 1.1 µM.

For the compound `Cc1cccc(CCc2nnc(SCC(=O)O)n2Cc2ccccc2)c1`, the Ki on Carboxypeptidase B [1] (read-out: Ki) came out at 57 µM; at Carboxypeptidase B [2], 196 µM; on Carboxypeptidase A1, 217 µM.

With `O=C(O)CC(Cc1ccccc1)C(=O)O` (racemic), the inhibition constant (Ki) at Carboxypeptidase B [1] (read-out: Ki) is 11.9 µM; on Carboxypeptidase B [2], 10 µM; on Carboxypeptidase A1 it was 0.5 µM.

`Cc1ccccc1-c1nnc(SCC(=O)c2ccccc2F)o1`: the Ki on Carboxypeptidase B [1] (read-out: Ki) is 40 µM; on Carboxypeptidase B [2], 14.7 µM; at Carboxypeptidase A1 it was 39.3 µM.

Consider `COc1ccccc1-c1nnc(SCC(=O)OC(C)C)n1Cc1ccccc1`, for which the Ki at Carboxypeptidase B [1] (read-out: Ki) was found to be 36.1 µM; at Carboxypeptidase B [2] it was 7.4 µM; at Carboxypeptidase A1, 160 µM.

`NC(=O)CSc1nnc(-c2cccs2)n1Cc1ccccc1`: the Ki at Carboxypeptidase B [1] (read-out: Ki) stood at 27.2 µM; on Carboxypeptidase B [2] it was 11.6 µM; on Carboxypeptidase A1, 155 µM.

`O=C(CSc1nnc(-c2ccccc2O)o1)c1ccc(Cl)cc1`: the Ki on Carboxypeptidase B [1] (read-out: Ki) amounted to 1 µM; on Carboxypeptidase B [2] it was 7.5 µM; on Carboxypeptidase A1 it was 2.1 µM. Besides, in experiment [3], the Ratio Ki turned out to be 20.

On to `COC(=O)CSc1nnc(-c2ccccc2O)n1Cc1ccccc1`, for which the Ki turned out to be 41.6 µM on Carboxypeptidase B [1] (read-out: Ki), 4.9 µM at Carboxypeptidase B [2] and 159 µM at Carboxypeptidase A1. The Ratio Ki in experiment [3] was 30.

`O=C(O)c1cccc(-n2nnnc2SCC(=O)c2ccccc2F)c1`: the figures for the Ki on Carboxypeptidase B [1] (read-out: Ki), on Carboxypeptidase B [2] and at Carboxypeptidase A1 were 53.8 µM, 33.6 µM and 550 µM, respectively.

Consider `Cc1ccc(C)c2c1[nH]c1nc(SCC(=O)c3ccc(F)cc3)nnc12`, for which the inhibition constant (Ki) on Carboxypeptidase B [1] (read-out: Ki) was found to be 9 µM; at Carboxypeptidase B [2], 15 µM; on Carboxypeptidase A1, 86.3 µM.

Take `COc1cccc(CSc2nnc(Cc3csc(Nc4cccc(Cl)c4)n3)o2)c1`: the figures for the Ki at Carboxypeptidase B [1] (read-out: Ki), at Carboxypeptidase B [2] and on Carboxypeptidase A1 were 3.6 µM, 1.2 µM and 22.5 µM, respectively.

In the case of `O=C(CSc1nnc(-c2ccccc2F)o1)OCc1ccccc1`, the Ki was found to be 33.4 µM on Carboxypeptidase B [1] (read-out: Ki), 67.2 µM at Carboxypeptidase B [2] and 32 µM on Carboxypeptidase A1.

Consider `O=C(O)c1ccccc1C(=O)N1CCC(C(=O)c2ccccc2)CC1`, for which the Ki on Carboxypeptidase B [1] (read-out: Ki) was 19.6 µM; on Carboxypeptidase B [2], 20.7 µM; on Carboxypeptidase A1, 320 µM.

As to `O=S(=O)(NCc1ccccc1)c1ccc(S(=O)(=O)N(Cc2cccs2)CC2CCCO2)cc1` (configuration not stated), the Ki result was “Not Active” on Carboxypeptidase B [1], 23 µM at Carboxypeptidase B [2] and 19.4 µM on Carboxypeptidase A1.

Regarding `CCOC(=O)C(Sc1nnc(COc2ccc(CC)cc2)n1CC)C(C)C` (configuration not stated), the figures for the Ki at Carboxypeptidase B [1] (read-out: Ki), at Carboxypeptidase B [2] and on Carboxypeptidase A1 were 11.9 µM, 10.8 µM and 22 µM, respectively.

As for `Cc1cc(S(=O)(=O)N(Cc2ccco2)Cc2ccccc2Cl)ccc1-n1cnnn1`, the Ki at Carboxypeptidase B [1] (read-out: Ki) was determined as 12.6 µM; at Carboxypeptidase B [2], 16.6 µM; on Carboxypeptidase A1, 159 µM.

For the compound `COc1ccccc1Cn1c(SCC(=O)N2CCC(C)CC2)nnc1-c1ccncc1`, the Ki on Carboxypeptidase B [1] (read-out: Ki) is 30.2 µM; on Carboxypeptidase B [2], 20.8 µM; at Carboxypeptidase A1, 381 µM.

For `O=C(CSc1nnc(-c2ccco2)n1Cc1ccccc1)c1ccc(F)cc1`, the results for the Ki result on Carboxypeptidase B [1], on Carboxypeptidase B [2] and at Carboxypeptidase A1 were “Not Active”, 74.5 µM and 236 µM, respectively.

In the case of `CCCN(C(=O)Cc1ccccc1OC)c1nnc(-c2ccc(OC)cc2)s1`, the values for the inhibitory constant (Ki) on Carboxypeptidase B [1] (read-out: Ki), on Carboxypeptidase B [2] and on Carboxypeptidase A1 were 19.7 µM, 25.1 µM and 128 µM, respectively.

`O=S(=O)(NCc1cccs1)c1ccc(-c2nnc(SCc3ccccc3Cl)o2)cc1`: the Ki was 1.4 µM on Carboxypeptidase B [1] (read-out: Ki), 40 µM at Carboxypeptidase B [2] and 67.3 µM at Carboxypeptidase A1.

Consider `O=C(C1CC1)N(Cc1ccccc1)c1nc(-c2ccccc2)cs1`, for which the Ki was found to be 1.2 µM on Carboxypeptidase B [1] (read-out: Ki), 4.5 µM at Carboxypeptidase B [2] and 800 µM at Carboxypeptidase A1. Besides, the Ratio Ki in experiment [3] came out at 160.

The record behind these values is ChEMBL document CHEMBL1153015, “A new type of five-membered heterocyclic inhibitors of basic metallocarboxypeptidases” (Eur J Med Chem, 2009).
